By IC50 is commonly meant the point on the concentration scale where inhibition reaches its midpoint. Higher therefore signals weaker potency. As usually defined, the CC50 is the concentration at which the toxic effect on the cells reaches its halfway point. A low value points to harm at low concentration.

The values below come from US20240400536A1, “IDEBENONE DERIVATIVES AND THEIR USE IN TREATING PLANTS” (MITORX THERAPEUTICS LIMITED, priority 2021, published 2024).

Data set [1] deals with b.End3 cells. As to the kind of experiment: Hyperglycaemia-induced mitochondrial dysfunction: mitochondrial membrane potential restore. Type of data set: cell-based. Particulars: compound added on day 8 for two days. As for the experimental part:
Moreover, in cardiovascular diseases such as hypertension and diabetes a loss of endothelial function and cell death were observed [Poredos et al, 2021].
In order to induce hyperglycemia in b.End3 cells, a literature reported protocol Lorenzi et al 1985; Qu et al 2014] was followed. After trypsinisation, cells were diluted with supplemented DMEM (approximately 2 ml per flask) and consequently, cells from 3 or 4 different flasks were transferred in a 15 ml sterile conical centrifuge tube and centrifuged for 5 minutes, in order to separate the cells from the medium. Following that, the supernatant medium was removed and the cells were gently re-suspended and mixed with approximately 4 ml of fresh supplemented DMEM. 20 μl of this solution was added to 40 μl of trypan blue and 10 μl of the final solution was loaded onto a cell counting slide dual-chamber. Trypan blue allows to distinguish between live and dead cells. Indeed it is impermeable in live cells, while it is absorbed by dead cells. The number of cells per ml was measured using an automated cell counter. Commonly, the value found was […] and consequently, the cell solution was diluted, in order to obtain a concentration of 20,000 cells/well in the minimum volume necessary to fill a 96-well plate (200 μl/well, ≈13 ml for one plate, since the two external columns and rows were loaded with cell-free medium because they are susceptible to evaporation thus, the cell medium in these wells prevented the external cell-containing wells from evaporating). Cells were cultured overnight in a humidified incubator, in order to allow them to attach to the plate surface. Afterwards, the medium was removed (a part of the plate was kept with normal glucose DMEM as a […]) and supplemented high-glucose DMEM was added. Cells were cultured for 8 days since, in previous studies, it was determined that this is the minimum amount of time required to induce extensive mitochondrial dysfunction, such as excessive oxidant production and mitochondrial membrane hyperpolarisation Lorenzi et al 1985; Qu et al 2014]
On day 8, 10 μl/well (1/20 dilution factor) of a solution of an H2S donor or of a control compound or a PBS vehicle solution (with calcium and magnesium salts and 10% DMSO) was administered to cells. The final concentration of DMSO in cells was 0.5%: higher DMSO doses may be toxic for the cells. The cells were incubated for a further two days in the presence of the compound and after ten days of hyperglycaemia exposure, the amount of mitochondrial oxidant and mitochondrial membrane hyperpolarisation were determined. Noticeably in this procedure, in order to evaluate the cytoprotective activity of the novel compounds, the drugs were added only after the mitochondrial dysfunction in cells had already occurred. The protocol described is summarised in the scheme below:
On day 0, cells (20,000 cell/ml) were plated in a 96-well plate. Cells were cultured overnight at 37° C. On day 1, supplemented DMEM was removed and high-glucose supplemented DMEM was added. On day 8, an H2S donor compound (Examples 1-7), a control compound or altematively a vehicle solution was added to cells. On day 10, mitochondrial dysfunction were determined Lorenzi et al 1985; Qu et al 2014].

Data set [2] has as its system b.End3 cells. As to the kind of experiment: Toxicity (TC50). Type of data set: cell-based.
The subject of data set [3] is b.End3 cells. As to the kind of experiment: Hyperglycaemia-induced mitochondrial dysfunction: mitochondrial superoxide (ROS) production, Mitosox Red. It counts as cell-based. The settings on record: 10 days hyperglycaemia, compound added on day 8 for two days. The method, then:
In order to induce hyperglycemia in b.End3 cells, a literature reported protocol Lorenzi et al 1985; Qu et al 2014] was followed. After trypsinisation, cells were diluted with supplemented DMEM (approximately 2 ml per flask) and consequently, cells from 3 or 4 different flasks were transferred in a 15 ml sterile conical centrifuge tube and centrifuged for 5 minutes, in order to separate the cells from the medium. Following that, the supernatant medium was removed and the cells were gently re-suspended and mixed with approximately 4 ml of fresh supplemented DMEM. 20 μl of this solution was added to 40 μl of trypan blue and 10 μl of the final solution was loaded onto a cell counting slide dual-chamber. Trypan blue allows to distinguish between live and dead cells. Indeed it is impermeable in live cells, while it is absorbed by dead cells. The number of cells per ml was measured using an automated cell counter. […] Cells were cultured for 8 days since, in previous studies, it was determined that this is the minimum amount of time required to induce extensive mitochondrial dysfunction, such as excessive oxidant production and mitochondrial membrane hyperpolarisation Lorenzi et al 1985; Qu et al 2014]
On day 8, 10 μl/well (1/20 dilution factor) of a solution of an H2S donor or of a control compound or a PBS vehicle solution (with calcium and magnesium salts and 10% DMSO) was administered to cells. […] The cells were incubated for a further two days in the presence of the compound and after ten days of hyperglycaemia exposure, the amount of mitochondrial oxidant and mitochondrial membrane hyperpolarisation were determined. […]
On day 0, cells (20,000 cell/ml) were plated in a 96-well plate. […] On day 10, mitochondrial dysfunction were determined Lorenzi et al 1985; Qu et al 2014]. […]

The subject of another data set is C. elegans. As to the kind of experiment: Worm screening: mitochondrial network imaging in ageing C. elegans. It counts as in vivo. The settings on record: for reduction of networked mitochondria caused by aging: FIG. 2; for damage caused to mitochondrial network in aging: FIG. 3. As for the experimental part: C. elegans strains were cultured at 20° C. on Petri dishes containing nematode growth medium (NGM) agar and a lawn of Escherichia coli OP50, unless stated otherwise. Animals for the study were age-synchronized by gravity synchronization from the L1 stage and allowed to grow to the desired day of adulthood. The C. elegans strains used in this study were Bristol strain N2 (WT) provided by the Caenorhabditis Genetics Center.
Mitochondrial imaging was used in day 1 adults, with or without treatment, to examine the mitochondrial network. Worms were cultured on test compounds as described. Approximately 20 day 1 adults were picked into 20 μL of M9 buffer on a microscope slide with a coverslip applied. Worms were imaged at 40× magnification using a Nikon Eclipse 50i microscope. The protocol used was as described by Oh and Kim. Briefly animals were assessed at day 4 and day 8 of adulthood, where the number of dead muscle cells was determined by quantifying the number of muscle cells that had lost their distinct circular nuclear GFP signal. Approximately 30 animals were picked into 20 μL of M9 buffer on a microscope slide with a coverslip applied. Worms were imaged at 10× magnification by using a Nikon Eclipse 50i microscope.

For data set [4] the following is noted: cited from earlier work.
Another data set deals with endothelial cells. Particulars: cited from earlier work.
Another data set in a line: Toxicity (TC50). It counts as cell-based. Particulars: mouse, b.End3 cells.
The test system of data set [5] is senescent primary human lung fibroblasts. As to the kind of experiment: Cellular bioenergetics (Seahorse OCR) in senescent primary human lung fibroblasts. It counts as cell-based. The settings on record: FIG. 4; compounds 0-300 nM; compared to the control (SIP cells without compound). The method, then:
Human primary lung fibroblasts were isolated from healthy volunteers and cultured in DMEM supplemented with 10% fetal calf serum and 1% pen/strep and […] L-glutamine, at 37° C., 5% CO2. To induce senescence, cells were seeded at a density of 50,000 cells per well in 250 μl of cell culture media onto Seahorse V7 plates and treated daily with fresh cell culture media containing […] H2O2 for 5 days, cells were then cultured with normal medium for a further 9 days. Senescence was confirmed by microscopy and staining for the senescence marker, senescence-associated-β-galactosidase (SA-βgal; Cell Signalling kit #9860). Cells were then treated with compounds (0-300 nM) for a further 24 h (controls are *SIP cells without compounds) and after this time, cellular bioenergetics determined using a Seahorse XFe24 extracellular flux analyser performed as described below. * SIP-senescence-induced phenotype
For the mitochondrial stress and glycolytic stress tests (Agilent, UK)Seahorse XFe24 sensor cartridges were hydrated with Seahorse XF calibrant solution and maintained at 37° C. in a non-CO2 incubator overnight. […] After incubation, plates were loaded onto Seahorse XFe24 Analyser and basal oxygen consumption rate (OCR) measured for 3 cycles. […] Extracellular acidification rate (ECAR) and Oxygen consumption rate (OCR) were measured for 3 baseline cycles and injection strategy initiated. […]

In turn, “4-(3-sulfanylidene-3H-1,2- dithiol-5-yl)phenyl) 10-(4,5-dimethoxy-2- methyl-2,6-dioxocyclohexa- 1,4-dien-1-yl)decanoate [Example 2]” gave an IC50 in the data set on b.End3 cells [1] (10 days hyperglycaemia) of 0.006 µM. In the data set with b.End3 cells [2], this molecule came in with a CC50 of 130 µM. For the same molecule, the “IC25 (Mitochondrial ROS level restore)” value in the data set with b.End3 cells [3] was found to be 0.01 µM. Moreover, in the data set on C. elegans (FIG. 1), the “fragmentation of the mitochondrial network caused by ageing” value is listed as “inhibited”. Further, in the data set with C. elegans, the “reduction of networked mitochondria caused by aging” value (from here on “reduction”) was “preserved” and the “damage caused to mitochondrial network in aging” value (from here on “damage caused”) is listed as “can be inhibited”.

With `Oc1ccc(-c2cc(=S)ss2)cc1` [ADTOH, 5-(4-hydroxyphenyl) -3H-1,2-dithiole-3-thione], in the data set with C. elegans, the “reduction” value is “not” and the “damage caused” value is “not”.

The molecule `O=C(CCCCCCCCC[P+](c1ccccc1)(c1ccccc1)c1ccccc1)Oc1ccc(-c2cc(=S)ss2)cc1.[Br-]` [AP39] yielded an IC50 in the data set with b.End3 cells [1] (10 days hyperglycaemia) of 0.004 µM. Besides, the aqueous solubility entry in data set [4] is “poor”. Half-maximal cytotoxicity with b.End3 cells [2] (CC50) was put at 8 µM. In addition, the “IC25 (Mitochondrial ROS level restore)” value in the data set with b.End3 cells [3] is 0.01 µM. In the data set with endothelial cells (endothelial cells), the ATP production entry is recorded as “increase”. Besides, in the data set on endothelial cells (inside the mitochondria), the protein persulfidation entry is “increase”. Also, the “intracellular levels of H2S” value with endothelial cells (mainly inside the mitochondria, concentration-dependent) is reported as “increase”.

As to `COC1=C(OC)C(=O)C(CCCCCCCCCCOC(=O)COc2ccc(-c3cc(=S)ss3)cc2)=C(C)C1=O` [Example 1, 10-(4,5-dimethoxy-2-methyl-3,6-dioxocyclohexa-1,4-dien-1-yl)decyl 2-[4-(3-sulfanylidene-3H-1,2-dithiol-5-yl)phenoxy]acetate], the IC50 in the data set with b.End3 cells [1] (BEND3, 10 days hyperglycaemia) was 0.0004 µM. Also, the CC50 in the data set “Toxicity (TC50)” came out at 147 µM. Further, in the data set with b.End3 cells [3], the “IC25 (Mitochondrial ROS level restore)” value was determined as 0.0065 µM.

Regarding `COC1=C(OC)C(=O)C(CCCCCCCCCC(=O)Oc2ccc(-c3cc(=O)ss3)cc2)=C(C)C1=O` [Example 3, 4-(3-oxo-3H-1,2-dithiol-5-yl)phenyl 10-(4,5-dimethoxy-2-methyl-3,6-dioxocyclohexa-1,4-dien-1-yl)decanonate], half-maximal inhibition with b.End3 cells [1] (BEND3, 10 days hyperglycaemia) (IC50) required 0.005 µM. The same molecule displayed a CC50 in “Toxicity (TC50)” of 76 µM.

Molecule `COC1=C(OC)C(=O)C(CCCCCCCCCC(=O)Oc2ccc(C(N)=S)cc2)=C(C)C1=O` [Example 4, 4-carbamothioylphenyl 10-(4,5-dimethoxy-2-methyl-3,6-dioxocyclohexa-1,4-dien-1-yl)decanoate] had an IC50 in the data set with b.End3 cells [1] (BEND3, 10 days hyperglycaemia) of 0.001 µM. In the data set “Toxicity (TC50)”, this molecule yielded a cytotoxic concentration (CC50) of 100 µM.

Take `CC1=C(CCCCCCCCCC(=O)Nc2ccc(C(N)=S)cc2)C(=O)c2ccccc2C1=O` [Example 17, N-(4-carbamothioylphenyl)-10-(3-methyl-1,4-dioxo-1,4-dihydronaphthalen-2-yl)decanamide]: the “dysfunction of the mitochondria (loss of OCR) in senescent cells” value in data set [5] is “reversed”.

Take `COC1=C(OC)C(=O)C(CCCCCCCCCCO)=C(C)C1=O` [idebenone]: in the data set with C. elegans, the “reduction” value was “not” and the “damage caused” value is “not”.
